Values quoted from earlier work, collected in patent EP2742940A1, “Salts of aza-bicyclo-di-aryl ethers for adminstration once daily, twice daily or thrice daily” (IP Gesellschaft für Management mbH, priority 2012, dated 2014).
pEC50: −log10 of the molar value. Values joined by “and” are separate entries in the source; they are usually repeats but may differ in a detail not shown here. Identical values can stand only once. Like-named read-outs stand apart in the source and are kept apart here.

Legend:
α7-nAChR = target: T1, α7-nAChR (Homo sapiens, UniProt P36544); conditions: Emax relative to epibatidine response
T1 construct: expressed in transfected cells; host or cells: GH3 cells

[1] = mice; for Brain (pmoles/g)±SD) / Plasma (pmoles/ml±SD): 30 µmol/kg p.o.
mice = conditions: mouse, oral, Dose 0.3 mg/kg, familiar partner at 24 h vs time 0
α4β2-nAChR = target: T2, α4β2-nAChR (Homo sapiens, UniProt P17787+P43681)
T2 construct: expressed in transfected cells

[2] = design: Initial water content / Hygroscopy @ 85%RH: unit not given here
[3] = male Wistar rats, oral 10 mg/kg, Mean All (n=8)
[4] = male Wistar rats, oral 10 mg/kg, individual rats 01-08, listed as free base, 10 mg/kg

T1 sequence (P36544 23-502): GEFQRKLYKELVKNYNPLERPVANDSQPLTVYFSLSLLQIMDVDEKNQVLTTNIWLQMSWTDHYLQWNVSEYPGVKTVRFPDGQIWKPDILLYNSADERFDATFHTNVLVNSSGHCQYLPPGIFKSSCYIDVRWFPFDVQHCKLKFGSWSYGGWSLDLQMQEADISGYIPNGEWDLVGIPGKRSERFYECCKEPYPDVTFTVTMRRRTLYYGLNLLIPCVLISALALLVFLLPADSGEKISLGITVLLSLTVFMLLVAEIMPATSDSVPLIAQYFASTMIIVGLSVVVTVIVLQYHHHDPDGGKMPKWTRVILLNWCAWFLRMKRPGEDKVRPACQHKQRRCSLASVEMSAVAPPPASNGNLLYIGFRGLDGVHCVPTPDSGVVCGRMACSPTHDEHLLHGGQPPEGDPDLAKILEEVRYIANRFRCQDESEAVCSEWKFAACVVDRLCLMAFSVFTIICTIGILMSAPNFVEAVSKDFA
T2 sequence (P43681 29-627 limits assumed): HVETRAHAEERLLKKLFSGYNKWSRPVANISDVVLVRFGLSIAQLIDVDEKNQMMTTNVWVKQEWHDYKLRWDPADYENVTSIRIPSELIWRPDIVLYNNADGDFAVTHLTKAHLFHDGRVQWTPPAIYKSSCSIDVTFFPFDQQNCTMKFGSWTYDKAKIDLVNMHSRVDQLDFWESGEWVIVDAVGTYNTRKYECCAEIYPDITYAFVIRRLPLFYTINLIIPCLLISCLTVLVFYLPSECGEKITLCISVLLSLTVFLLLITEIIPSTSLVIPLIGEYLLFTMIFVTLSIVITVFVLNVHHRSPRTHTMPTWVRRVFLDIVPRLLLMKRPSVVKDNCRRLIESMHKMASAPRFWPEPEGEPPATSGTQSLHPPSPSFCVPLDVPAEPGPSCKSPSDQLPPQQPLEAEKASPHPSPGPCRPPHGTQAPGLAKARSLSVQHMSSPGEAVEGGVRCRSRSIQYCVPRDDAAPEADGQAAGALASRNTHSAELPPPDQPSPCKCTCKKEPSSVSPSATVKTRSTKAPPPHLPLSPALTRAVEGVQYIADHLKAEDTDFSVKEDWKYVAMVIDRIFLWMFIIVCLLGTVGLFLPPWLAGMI
T2 sequence (P17787 26-502): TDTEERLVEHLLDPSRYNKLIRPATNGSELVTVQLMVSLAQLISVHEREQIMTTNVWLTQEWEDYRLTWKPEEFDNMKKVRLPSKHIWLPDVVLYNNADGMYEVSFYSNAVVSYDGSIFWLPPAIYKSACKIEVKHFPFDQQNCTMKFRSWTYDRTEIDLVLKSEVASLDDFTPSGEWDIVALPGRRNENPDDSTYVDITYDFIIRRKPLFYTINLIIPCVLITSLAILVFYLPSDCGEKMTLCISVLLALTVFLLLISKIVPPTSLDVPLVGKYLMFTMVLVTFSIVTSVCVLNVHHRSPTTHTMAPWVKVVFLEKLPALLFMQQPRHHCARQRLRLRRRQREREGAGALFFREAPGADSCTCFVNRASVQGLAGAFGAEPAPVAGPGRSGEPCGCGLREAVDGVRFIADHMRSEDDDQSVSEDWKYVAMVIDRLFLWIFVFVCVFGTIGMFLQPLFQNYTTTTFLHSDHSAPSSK

Cc1ccc(-c2ccc(O[C@H]3CN4CCC3CC4)cn2)cc1 [Compound A, (R)-3-(6-(4-methylphenyl)-pyridin-3-yloxy)-1-aza-bicyclo[2.2.2]octane]
α7-nAChR activity Efficacy compared to epibatidine (100%) (α7-nAChR): 75%
Brain (pmoles/g)±SD) ([1]; 0.25 hour): 4631 ± 1717 pmol/g
Plasma (pmoles/ml±SD) ([1]; 0.25 hour): 573 ± 234 pmol/mL
Brain (pmoles/g)±SD) ([1]; 0.5 hour): 11430 ± 3441 pmol/g
Plasma (pmoles/ml±SD) ([1]; 0.5 hour): 559 ± 143 pmol/mL
Brain (pmoles/g)±SD) ([1]; 1 hour): 14948 ± 4716 pmol/g
Plasma (pmoles/ml±SD) ([1]; 1 hour): 322 ± 135 pmol/mL
Brain (pmoles/g)±SD) ([1]; 4 hour): 1272 ± 715 pmol/g
Plasma (pmoles/ml±SD) ([1]; 4 hour): 20 ± 16 pmol/mL
Brain (pmoles/g)±SD) ([1]; 8 hour): 58 ± 27 pmol/g
time for which brain concentration is beyond (or at least equal) to the compound's EC50 at the a7-nAChR ([1]; acute oral dose of 30 pmol/kg (so in the source), free base form): at least 4 hours
AUClast [3]: 200 ng·h/mL
AUClast/Dose (h·ng/mL)/(mg/kg) [3]: 20.4 (h·ng/mL)/(mg/kg)
Cmax [3]: 112 ng/mL
Cmax/Dose (ng/mL)/(mg/kg) [3]: 11.3 (ng/mL)/(mg/kg)
Concentration in plasma, Time (h) 0.25 [3]: 100 ng/mL
Concentration in plasma, Time (h) 0.5 [3]: 83.5 ng/mL
Concentration in plasma, Time (h) 1 [3]: 52.7 ng/mL
Concentration in plasma, Time (h) 2 [3]: 31.2 ng/mL
Concentration in plasma, Time (h) 3 [3]: 16.2 ng/mL
Concentration in plasma, Time (h) 4 [3]: 10.3 ng/mL
Concentration in plasma, Time (h) 6 [3]: 437 ng/mL
Concentration in plasma, Time (h) 8 [3]: 354 ng/mL
Concentration in plasma, Time (h) 24 [3]: 0.822 ng/mL
AUClast [4]: 141 ng·h/mL and 123 ng·h/mL and 238 ng·h/mL and 136 ng·h/mL and 214 ng·h/mL and 296 ng·h/mL and 234 ng·h/mL and 236 ng·h/mL
AUClast/Dose (h·ng/mL)/(mg/kg) [4]: 14.0 (h·ng/mL)/(mg/kg) and 12.0 (h·ng/mL)/(mg/kg) and 24.4 (h·ng/mL)/(mg/kg) and 13.5 (h·ng/mL)/(mg/kg) and 21.6 (h·ng/mL)/(mg/kg) and 29.7 (h·ng/mL)/(mg/kg) and 23.4 (h·ng/mL)/(mg/kg) and 24.5 (h·ng/mL)/(mg/kg)
Cmax [4]: 58.8 ng/mL and 89.6 ng/mL and 83.0 ng/mL and 94.8 ng/mL and 119 ng/mL and 188 ng/mL and 117 ng/mL and 145 ng/mL
Cmax/Dose (ng/mL)/(mg/kg) [4]: 5.81 (ng/mL)/(mg/kg) and 8.79 (ng/mL)/(mg/kg) and 8.50 (ng/mL)/(mg/kg) and 9.40 (ng/mL)/(mg/kg) and 12.0 (ng/mL)/(mg/kg) and 18.9 (ng/mL)/(mg/kg) and 11.7 (ng/mL)/(mg/kg) and 15.0 (ng/mL)/(mg/kg)
Concentration in plasma, Time (h) 0.25 [4]: 58.8 ng/mL and 89.68 ng/mL and 3.0 ng/mL and 79.4 ng/mL and 105 ng/mL and 188 ng/mL and 49.0 ng/mL and 145 ng/mL
Concentration in plasma, Time (h) 0.5 [4]: 34.8 ng/mL and 51.2 ng/mL and 64.5 ng/mL and 94.8 ng/mL and 119 ng/mL and 122 ng/mL and 117 ng/mL and 65.0 ng/mL
Concentration in plasma, Time (h) 1 [4]: 20.1 ng/mL and 63.9 ng/mL and 36.0 ng/mL and 65.8 ng/mL and 83.6 ng/mL and 87.0 ng/mL and 33.8 ng/mL
Concentration in plasma, Time (h) 2 [4]: 679 ng/mL and 12.6 ng/mL and 51.7 ng/mL and 16.2 ng/mL and 43.2 ng/mL and 46.9 ng/mL and 42.2 ng/mL and 29.9 ng/mL
Concentration in plasma, Time (h) 3 [4]: 531 ng/mL and 838 ng/mL and 26.3 ng/mL and 784 ng/mL and 23.0 ng/mL and 34.4 ng/mL and 18.4 ng/mL and 620 ng/mL
Concentration in plasma, Time (h) 4 [4]: 394 ng/mL and 3.99 ng/mL and 18.2 ng/mL and 454 ng/mL and 8.63 ng/mL and 21.1 ng/mL and 13.8 ng/mL and 8.55 ng/mL
Concentration in plasma, Time (h) 6 [4]: 487 ng/mL and 181 ng/mL and 662 ng/mL and 127 ng/mL and 5.32 ng/mL and 438 ng/mL and 4.59 ng/mL and 606 ng/mL
Concentration in plasma, Time (h) 8 [4]: 662 ng/mL and 0.812 ng/mL and 246 ng/mL and 1.32 ng/mL and 367 ng/mL and 154 ng/mL and 225 ng/mL and 967 ng/mL
T1/2 [4]: 8.67 h and 3.24 h and 367 h
Tlast [4]: 24.0 h (3×) and 8.0 h
AUClast (rats, acute oral dosing of 10 mg/kg): 200+-62 h ng/ml
Reduction in time scrutinizing in % ± SEM at 24 h (mice): 36 ± 6%
pEC50 (α4β2-nAChR): < 4.00
Hygroscopy @ 85%RH ([2]; 85%RH): ∼2
Initial water content ([2]; Example 7 comparison of salt forms): 0.1
moisture gain ([2]; at 93% relative humidity (RH)): 2%
